target: GPR84 (Homo sapiens (Human), UniProt Q9NQS5); assay: Gai biosensor BRET assay (GPR84-mediated activation of Gai, antagonist mode against agonist ZQ-16); format: cell-based; conditions: HEK293 cells, 200 nmol/L GPR84 agonist ZQ-16, read-out: hGPR84 IC50
Outline: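 Transiently transfected HEK293 cells expressing GPR84, Gαi2-Rluc8, GFP10-Gγ2 and Gβ1, in Tyrode's buffer pH 7.5. Compounds pre-incubated 5 min at 37° C, then 200 nmol/L ZQ-16 for 5 min at room temperature; BRET² with coelenterazine 400A, ligand-promoted net BRET after background and vehicle subtraction.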

Chain of GPR84 (Q9NQS5 whole entry): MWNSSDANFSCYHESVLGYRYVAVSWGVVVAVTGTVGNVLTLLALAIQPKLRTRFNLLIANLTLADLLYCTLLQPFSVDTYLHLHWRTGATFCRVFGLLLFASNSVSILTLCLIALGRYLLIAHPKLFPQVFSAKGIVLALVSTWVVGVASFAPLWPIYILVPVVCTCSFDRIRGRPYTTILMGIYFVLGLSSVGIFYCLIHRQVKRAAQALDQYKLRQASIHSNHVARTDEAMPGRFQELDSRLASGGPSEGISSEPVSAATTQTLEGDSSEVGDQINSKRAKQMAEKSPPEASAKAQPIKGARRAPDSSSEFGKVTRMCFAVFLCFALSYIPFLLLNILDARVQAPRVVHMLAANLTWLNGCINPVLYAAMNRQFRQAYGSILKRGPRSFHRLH

IC50 [µM] | Compound
< 5 | Cc1cc(OC[C@@H]2CCCOC2)cc(=O)n1[C@H](C)c1ccc(C#CC2CC2)cc1 [Compound I-232]
< 5 | Cc1cc(OCc2ncccc2Cl)cc(=O)n1[C@H](C)c1ccc(C#CC2CC2)cc1 [Compound I-256]

same assay, conditions: compound tested at 2 μM (concentration code A)

inhibition at 2 µM [%] | Compound
< 25 | Cc1c(C#CC2CC2)cccc1Cn1c(C)cc(OCc2ncccn2)cc1=O [Compound I-241]
< 25 | Cc1cc(OCc2ncccn2)cc(=O)n1[C@H](C)c1cccc(C#CC2CC2)c1 [Compound I-252]
> 75 | Cc1cc(OCc2ncccc2Cl)cc(=O)n1[C@H](C)c1ccc(C#CC2CC2)cc1 [Compound I-256]

same assay, conditions: compound tested at 10 μM (concentration code D)

Compound | inhibition at 10 µM [%]
Cc1cc(OCC2Oc3ccccc3O2)cc(=O)n1[C@H](C)c1ccc(C#CC2CC2)cc1 [Compound I-230] | < 25
Cc1cc(OCc2ncccn2)cc(=O)n1[C@H](C)c1ccc(N2CC(C)(C)C2)cc1 [Compound I-235] | < 25
Cc1cc(OCc2ncccn2)cc(=O)n1[C@@H](C)c1ccc(C#CC2CC2)cc1 [Compound I-236] | < 25
Cc1cc(OCc2ncccn2)cc(=O)n1Cc1ccc(C#CC2CC2)cc1 [Compound I-237] | 50 to 75
Cc1cc(OCc2ncccn2)cc(=O)n1CCc1ccc(C#CC2CC2)cc1 [Compound I-238] | > 75
Cc1cc(OCc2ncccn2)cc(=O)n1Cc1ccc(N2CC(C)(C)C2)cc1 [Compound I-242] | < 25
Cc1cc(OCc2ncccn2)cc(=O)n1[C@H](C)c1ccc(C#N)cc1 [Compound I-243] | < 25
Cc1cc(OCc2ncccn2)cc(=O)n1-c1ccc(C#CC2CC2)cc1 [Compound I-244] | < 25
Cc1cc(OCc2ncccn2)cc(=O)n1-c1cccc(C#CC2CC2)c1 [Compound I-245] | < 25
COc1cnc(COc2cc(C)n([C@H](C)c3ccc(C#CC4CC4)cc3)c(=O)c2)nc1 [Compound I-247] | > 75
CC1(C)CN(c2cccc(Cn3ccc(OCc4ncccn4)cc3=O)c2)C1 [Compound I-248] | 25 to 50
Cc1cc(OCc2ncccn2)cc(=O)n1C(C)c1ccc(C#CC2CC2)cn1 (stereo not drawn) [Compound I-253] | 50 to 75
CC(c1ccc(NC(=O)C2CC2)cc1)n1ccc(OCc2ncccn2)cc1=O (stereo not drawn) [Compound I-255] | < 25

Next, values leading:

inhibition at 10 µM [%] | Compound
25 to 50 | Cc1cc(OCC2COCCO2)cc(=O)n1-c1ccc(C#CC2CC2)cc1 (stereo not drawn) [Compound I-225]
50 to 75 | Cc1cc(OCC2COCCO2)cc(=O)n1-c1cccc(C#CC2CC2)c1 (stereo not drawn) [Compound I-226]
50 to 75 | Cc1cc(OCC2OCC(C)(C)CO2)cc(=O)n1[C@H](C)c1ccc(C#CC2CC2)cc1 [Compound I-227]
< 25 | CC1(C)CN(c2cccc(Cn3ccc(OCC4COCCO4)cc3=O)c2)C1 (stereo not drawn) [Compound I-228]
< 25 | Cc1cc(OC[C@@H]2COCCO2)cc(=O)n1Cc1cc(C#CC2CC2)ccn1 [Compound I-231]
> 75 | Cc1cc(OC[C@@H]2CCCOC2)cc(=O)n1[C@H](C)c1ccc(C#CC2CC2)cc1 [Compound I-232]
25 to 50 | Cc1cc(OC[C@@H]2COCCO2)cc(=O)n1Cc1cccc(C#CC2CC2)c1 [Compound I-233]
50 to 75 | Cc1cc(OCC2COCCO2)cc(=O)n1CCc1ccc(C#CC2CC2)cc1 (stereo not drawn) [Compound I-234]
< 25 | Cc1cc(C#CC2CC2)ccc1C(C)n1ccc(OC[C@@H]2COCCO2)cc1=O (stereo partly drawn) [Compound I-239]
25 to 50 | CC(c1ccc(C#CC2CC2)cn1)n1ccc(OC[C@@H]2COCCO2)cc1=O (stereo partly drawn) [Compound I-240]
< 25 | Cc1cc(OC[C@@H]2COCCO2)cc(=O)n1C(C)c1ccc(C#CC2CC2)cn1 (stereo partly drawn) [Compound I-246]
25 to 50 | CC(c1ccc(C#CC2CC2)cn1)n1ccc(OCc2ncccn2)cc1=O (stereo not drawn) [Compound I-249]
25 to 50 | CC(c1cc(C#CC2CC2)ccn1)n1ccc(OCc2ncccn2)cc1=O (stereo not drawn) [Compound I-250]
< 25 | Cc1cc(C#CC2CC2)ccc1C(C)n1ccc(OCc2ncccn2)cc1=O (stereo not drawn) [Compound I-251]
< 25 | Cc1cc(C#CC2CC2)cnc1C(C)n1ccc(OCc2ncccn2)cc1=O (stereo not drawn) [Compound I-254]
